2 compounds from article PMC11623267, “Inhibitors of malaria parasite cyclic nucleotide phosphodiesterases block asexual blood-stage development and mosquito transmission” (Science Advances, 2024) can be followed below.

The test system of one assay is HepG2 cells. Description: HepG2 cytotoxicity. Type of assay: cell-based. An excerpt: Table 1. Key activity data for the three main chemical subseries against ABS parasites, parasite fractions, and HepG2 cells. ND, not determined; ×/÷ is the geometric mean with geometric SD. | column: HepG2 EC50 (nM) (selectivity index)
The subject of assay [1] is P. falciparum clinical isolates from Tororo and Busia Districts of Uganda. The experiment in a line: Ex vivo 72-hour SYBR Green assay, Ugandan clinical isolates. Conditions: 47 Ugandan isolates. Type of assay: cell-based, Plasmodium falciparum. An excerpt: Clinical isolates were from the Tororo District of Uganda, located in the central-eastern part of the county near the Kenya border. Tororo and surrounding areas have high-intensity, year-round malaria transmission. […] Patients reporting use of antimalarial treatment within the previous 30 days or with evidence of an infection with other Plasmodium species were excluded. Informed consent was obtained from patients and/or primary care givers (depending on age); children aged 8 to 17 years provided assent. Two to 5 ml of blood was collected by venipuncture in a heparin tube. Samples were delivered to the adjacent IDRC laboratory at Tororo District Hospital or transported by car from Masafu Hospital on the day of collections for storage of blood spots on filter paper (for isolation of nucleic acids) and initiation of ex vivo culture of malaria parasites. Treatment involved a standard therapeutic regimen for uncomplicated falciparum malaria, which was a 3-day course of the artemisinin-based combination therapy (ACT), artemether-lumefantrine. In Uganda, at the time of sampling, there was widespread resistance to the antifolate drugs due to mutant pfdhfr/pfdhps alleles. […] Chloroquine was prepared at 10 mM in water. Stock solutions were stored at −20°C. Working solutions were freshly prepared from a single aliquot within 4 hours of the susceptibility test and stored at 4°C.
Samples were delivered to the adjacent IDRC laboratory at Tororo District Hospital or transported by car from Masafu Hospital on the day of collection for storage of blood spots on filter paper (for isolation of nucleic acids) and initiation of ex vivo culture of malaria parasites. […] Before assay, 10 mM antimalarial stock compounds were diluted as necessary in DMSO and stored at −20°C. […] Compounds were serially diluted threefold in a 96-well assay plate in complete medium to a final volume of 50 μl, in columns 1 to 10, with concentrations optimized to capture full dose-response curves. Column 11 contained compound-free controls, while column 12 contained uninfected human RBC controls. Parasite culture (150 μl) was added to columns 1 to 11 of the assay plate with a final volume of 200 μl per well, 0.2% parasitemia, and 2% hematocrit. […] Thawed plates were incubated with SYBR Green lysis buffer for 1 hour in the dark as previously reported ([62]). Fluorescence was quantified using a BMG Fluostar Optima plate reader at an excitation of 485 nm and an emission of 530 nm, and data were plotted using GraphPad Prism 7. The data were curve fit with a variable slope function to estimate IC50 values. For each isolate, a Z′ factor to assess assay quality was calculated from positive controls (eight drug-free wells) and negative controls (eight parasite-free, red cell control wells). Z′ values over 0.5 were considered good assays, but each curve was also examined by eye for suitability. Some assays with Z′ below 0.5 may be considered valid depending on factors such as the SE of the curve-fit IC50.

Like-named read-outs stand apart in the source and are kept apart here.

For `CC(C)c1n[nH]c2c(=O)[nH]c(Cc3ccc(F)cc3F)nc12` [SAL-0010003], the EC50 with HepG2 cells (Homo sapiens, HepG2) was above 25000 nM. The compound further returned a HepG2 selectivity index in the assay on HepG2 cells (value in brackets after HepG2 EC50) above 77.
As for `CC(C)c1[nH]nc2c(=O)[nH]c(Cc3ccccc3F)nc12` [SAL-0010042], the EC50 stood at 204 nM in assay [1] (read-out: EC50 clinical isolates, Gmean (geometric mean)) and 197 nM in assay [1] (read-out: EC50 clinical isolates, Median).

For orientation: EC50 means the concentration giving half of the maximal effect.
